“Also recorded” adds a separate entry of the source. Like-named read-outs stand apart in the source and are kept apart here.
Assays:
[1] = cited from earlier work
[2] = cited from earlier work; remark: listed apart in the source
[3] = In vitro stability in simulated gastric fluid; format: in vitro ADME; details: intact compound after 90 min at 37 °C, pH approximately 1.2, HPLC
[4] = Peroxidase activity with tetramethyl benzidine as substrate; details: 5 μM sample, 0.2 mM hydrogen peroxide, 0.225 mM TMB, 27 °C; ± SD of triplicates
[5] = tested on: capillary endothelial cells; details: endothelial cell culture model; cited from earlier work
[6] = Catalase activity, disappearance of hydrogen peroxide; details: initial hydrogen peroxide 100 μM; ± SD of triplicates
[7] = Octanol partitioning; format: physicochemical; details: octanol/aqueous; ± SD of triplicates
[8] = target: serum albumin (Homo sapiens, UniProt P02768); test: In vitro binding to serum albumin; details: data not shown
[9] = tested on: PC12 cells; test: Inhibition of STS-induced cell death in PC12 cells; format: cell-based, rat; details: STS 5 μM, 18–24 h, XTT viability
[10] = In vivo oral availability, plasma levels after intragastric gavage; design: species or system Sprague–Dawley rats; details: rat, mean ± SD; for Plasma concentration 30 min: dose per compound 0.23-2.7 mg kg^−1
[11] = tested on: capillary endothelial cells; details: cited from earlier work
[12] = SOD activity, xanthine/xanthine oxidase with NBT detection; format: biochemical; details: read-out: SOD IC50, 10 μM NBT, pH 7.8, 25 °C
[13] = tested on: PC12 cells; test: Cytotoxicity in PC12 cells; format: cell-based, rat; details: data not shown
[14] = EUK-425 plasma levels after PO versus IV administration; format: in vivo, Sprague–Dawley rats; details: rats, 5 mg kg^−1 PO, 1 mg kg^−1 IV
[15] = tested on: capillary endothelial cells; test: Cytotoxicity in endothelial cell culture model; format: cell-based; details: unpublished data
[16] = tested on: capillary endothelial cells; test: Mitigation of ionizing radiation-induced apoptosis in endothelial cell culture; format: cell-based; details: endothelial cell culture model; unpublished data

Sequence of serum albumin (P02768 25-609 limits assumed): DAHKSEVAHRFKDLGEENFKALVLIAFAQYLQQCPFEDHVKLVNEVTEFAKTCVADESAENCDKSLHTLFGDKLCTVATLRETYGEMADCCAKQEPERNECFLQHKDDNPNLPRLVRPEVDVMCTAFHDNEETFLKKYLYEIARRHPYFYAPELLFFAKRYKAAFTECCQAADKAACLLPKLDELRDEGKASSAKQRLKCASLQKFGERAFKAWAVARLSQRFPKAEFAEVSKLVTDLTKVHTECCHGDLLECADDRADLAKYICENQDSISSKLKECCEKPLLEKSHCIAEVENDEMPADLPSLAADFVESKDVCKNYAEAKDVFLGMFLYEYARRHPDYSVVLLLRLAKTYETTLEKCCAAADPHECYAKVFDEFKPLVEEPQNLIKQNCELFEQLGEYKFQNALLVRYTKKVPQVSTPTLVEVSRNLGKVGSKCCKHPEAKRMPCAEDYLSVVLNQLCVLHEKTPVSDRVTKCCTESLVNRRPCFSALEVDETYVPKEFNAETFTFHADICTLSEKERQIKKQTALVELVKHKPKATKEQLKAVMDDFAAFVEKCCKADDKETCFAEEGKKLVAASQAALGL

Row | Compound | SGF stability [3] | POD [4] | CAT [6] | Log10 P [7] | P (octanol partitioning coefficient) [7] | Binding to serum albumin [8] | Protection of PC12 cells against STS-induced cell death [9] | Plasma concentration 30 min [10] | Plasma concentration 60 min [10] | Plasma concentration 120 min [10] | Plasma concentration 240 min [10] | Plasma concentration 360 min [10] | IC50 [12] | Cytotoxicity in PC12 cells [13] | further results
1 | COC(=O)c1c2nc(c(C(F)(F)F)c3ccc([n-]3)c(C(=O)OC)c3nc(c(C(F)(F)F)c4ccc1[n-]4)C=C3)C=C2.[Cl-].[Mn+3] [AEOL11207, 5,15-bis(methoxycarbonyl)-10,20-bistrifluoromethylporphyrinato manganese(III) chloride, reference compound] | – | – | – | – | – | – | – | – | – | – | – | – | – | – | Presence in brain tissue ([1]; mice, after subcutaneous or oral administration): present in the brain tissue; SOD activity, fold less active than Cu/Zn SOD ([2]; normalized to Cu/Zn SOD, assay methods differed): 123 fold
2 | C1=Cc2nc1cc1ccc([n-]1)c(C1CC1)c1nc(cc3ccc([n-]3)c2C2CC2)C=C1.CC(=O)[O-].[Mn+3] [EUK-418, manganese(III) 5,15-dicyclopropylporphine acetate] | 92% | 0.63 ± 0.08 μM TMB min^−1 | 0.47 ± 0.10 μM H2O2 min^−1 | 0.548 ± 0.009 | 3.53 ± 0.14 | bind to serum albumin | protect PC12 cells against STS-induced cell death; also recorded: relatively poor protector | 128 ± 83 ng/mL | 250 ± 147 ng/mL | 245 ± 145 ng/mL | 299 ± 224 ng/mL | 259 ± 166 ng/mL | 1.73 µM | – | Mitigation of apoptosis induced by ionizing radiation [5]: mitigated apoptosis induced by ionizing radiation; Oral bioavailability in mice [1]: orally bioavailable in mice; Tissue distribution after oral administration ([1]; mice, selected tissues): kidney > liver > lung ≫ brain; Cytotoxicity in endothelial cell culture model [11]: greatest cytotoxicity
3 | C1=Cc2nc1cc1ccc([n-]1)c(-c1ccccc1)c1nc(cc3ccc([n-]3)c2-c2ccccc2)C=C1.CC(=O)[O-].[Mn+3] [EUK-423, manganese(III) 5,15-diphenylporphine acetate] | 91% | 0.61 ± 0.05 μM TMB min^−1 | 0.45 ± 0.18 μM H2O2 min^−1 | 0.907 ± 0.002 | 8.07 ± 0.10 | bind to serum albumin | protect PC12 cells against STS-induced cell death; also recorded: most protective | 25 ± 7 ng/mL | 53 ± 19 ng/mL | 48 ± 23 ng/mL | 110 ± 61 ng/mL | 118 ± 17 ng/mL | – | – | Mitigation of apoptosis induced by ionizing radiation [5]: mitigated apoptosis induced by ionizing radiation; Cytotoxicity in endothelial cell culture model [11]: intermediate toxicity
4 | O=C(O)c1ccc(-c2c3nc(c(-c4ccc(C(=O)O)cc4)c4ccc([n-]4)c(-c4ccc(C(=O)O)cc4)c4nc(c(-c5ccc(C(=O)O)cc5)c5ccc2[n-]5)C=C4)C=C3)cc1.[Mn+3] [MnTBAP, manganese(III) tetrakis(4-benzoic acid) porphyrin] | – | – | – | – | – | – | – | – | – | – | – | – | – | – | SOD activity ([2]; earlier reported activity due to Mn aggregate impurities): no SOD activity
5 | manganese(III) 5,10,15,20-tetraethylporphine acetate [EUK-425] | 97% | 0.58 ± 0.03 μM TMB min^−1 | 0.57 ± 0.15 μM H2O2 min^−1 | 0.932 ± 0.006 | 8.56 ± 0.35 | bind to serum albumin | not significantly protective; also recorded: no cytoprotective activity | 52 ± 19 ng/mL | 48 ± 21 ng/mL | 78 ± 47 ng/mL | 96 ± 20 ng/mL | – | 12.5 µM | cytotoxic; also recorded: most cytotoxic | Detection in plasma by LC-MS/MS after oral gavage and intravenous injection [14]: detected in plasma
6 | manganese(III) 5,15-di-3,4-dimethoxyphenylporphine acetate [EUK-450] | 98% | 0.66 ± 0.10 μM TMB min^−1 | 0.58 ± 0.08 μM H2O2 min^−1 | 0.650 ± 0.010 | 4.46 ± 0.11 | – | not significantly protective; also recorded: no cytoprotective activity | 11 ± 10 ng/mL | 15 ± 9 ng/mL | 48 ± 46 ng/mL | 53 ± 53 ng/mL | 47 ± 38 ng/mL | 6.39 µM | cytotoxic; also recorded: most cytotoxic | –
7 | manganese(III) 5,15-dicyclohexylporphine chloride [EUK-452] | 98% | 0.63 ± 0.05 μM TMB min^−1 | 0.54 ± 0.06 μM H2O2 min^−1 | 1.973 ± 0.008 | 94.0 ± 1.7 | – | not significantly protective; also recorded: no cytoprotective activity | 57 ± 50 ng/mL | 52 ± 42 ng/mL | 75 ± 63 ng/mL | 75 ± 76 ng/mL | 71 ± 63 ng/mL | 11.6 µM | cytotoxic; also recorded: most cytotoxic | –
8 | manganese(III) 5,15-dipropylporphine chloride [EUK-453] | 98% | 0.56 ± 0.03 μM TMB min^−1 | 0.50 ± 0.11 μM H2O2 min^−1 | 0.619 ± 0.017 | 4.16 ± 0.16 | – | not significantly protective; also recorded: no cytoprotective activity | 8.8 ± 5.9 ng/mL | 8.1 ± 5.5 ng/mL | 7.7 ± 6.1 ng/mL | 7.7 ± 6.0 ng/mL | 4.6 ± 4.2 ng/mL | 5.95 µM | cytotoxic; also recorded: most cytotoxic | –
9 | manganese(III) 5,15-ditetrahydropyranyoporphine chloride [EUK-451] | 100% | 0.59 ± 0.023 μM TMB min^−1 | 0.64 ± 0.25 μM H2O2 min^−1 | −0.660 ± 0.011 | 0.22 ± 0.01 | – | protect PC12 cells against STS-induced cell death; also recorded: most protective | 44 ± 38 ng/mL | 61 ± 54 ng/mL | 66 ± 62 ng/mL | 107 ± 102 ng/mL | 86 ± 70 ng/mL | 3.36 µM | – | Cytotoxicity in endothelial cell culture model [15]: significantly lower cytotoxicity than the other EUK-400 compounds; Mitigation of apoptosis induced by ionizing radiation [16]: potent mitigator

Reference: PMC2716445 (Journal of Biological Inorganic Chemistry, 2009)
